The compounds below were run against T1, human indoleamine 2,3-dioxygenase 1 (hIDO1) (Homo sapiens, UniProt P14902) (assay: Inhibitory activity test at cellular level: IFN-γ-induced HeLa cells, kynurenine colour reaction). Settings: 50 ng/ml human IFN-γ, 200 μM L-tryptophan, 48 hours, each test compound 100 nM, read-out: hIDO1-cell base inhibition rate (%).
T1 construct: up-regulate the expression of endogenous IDO1 under the induction of human IFN-γ; endogenous in cells; host or cells: HeLa cells stimulated with human IFN-γ
T1 sequence (P14902 whole entry): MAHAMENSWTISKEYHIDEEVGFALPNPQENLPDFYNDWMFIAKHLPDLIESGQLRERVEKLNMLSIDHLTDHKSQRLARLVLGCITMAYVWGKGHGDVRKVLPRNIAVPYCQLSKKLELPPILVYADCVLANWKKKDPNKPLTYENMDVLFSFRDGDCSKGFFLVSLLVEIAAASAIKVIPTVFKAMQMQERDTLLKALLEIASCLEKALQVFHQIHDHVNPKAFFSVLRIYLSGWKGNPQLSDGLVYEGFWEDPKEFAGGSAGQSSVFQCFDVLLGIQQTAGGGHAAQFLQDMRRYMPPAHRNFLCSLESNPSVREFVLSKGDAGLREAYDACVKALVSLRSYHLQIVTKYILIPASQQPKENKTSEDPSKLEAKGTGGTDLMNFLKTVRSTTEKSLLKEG
Type: cell-based
Text: The subject of this assay was to comprehensively evaluate different compounds on their enzymatic inhibitory activity in vitro and on cell models against human indoleamine 2,3-dioxygenase 1 (hIDO1).
In the present application, the inventors used Hela cells expressing IDO1 induced by IFN-γ as a model, to test the IDO1 inhibitory activity of the compounds at the cellular level.
HeLa cells are human cervical cancer cell lines, which can up-regulate the expression of endogenous IDO1 under the induction of human IFN-γ. By adding the substrate L-tryptophan to cell culture medium, the enzymatic catalysis product kynurenine in cell supernatant was detected. In this experiment, the cultured Hela cells were used and co-incubated with different concentrations of test compounds under stimulation of human IFN-γ for a specified period of time, and the color reaction method of enzyme product and p-dimethylaminobenzaldehyde was used to detect the effect on IDO enzyme activity of cells treated by the test compounds.
(1) Hela cells were inoculated into 96-well culture plates at an appropriate concentration (about 20,000 cells/well). […] The cells were continuously cultured for 48 hours before detection.
(2) 200 μL of the supernatant in the culture well was pipetted out, added with 40 μL of the pre-prepared 30% (w/v) trichloroacetic acid solution, and reacted at 65° C. for 20 minutes, and then centrifuged at 12000 rpm for 15 minutes.
(3) 100 μL of the supernatant after centrifugation was pipetted out, added into a 96-well flat bottom plate, then added with an equal volume of 2% p-dimethylaminobenzaldehyde in glacial acetic acid and mixed well, and stood at room temperature for 10 minutes.
(4) microplate reader (ELX800NB) was used to detect the absorbance value of each well, and the detection wavelength was 492 nm.
In addition, after the cell enzyme activity inhibition rates of test compounds with different concentration gradients were separately calculated, their cell enzyme activity half inhibition concentrations (EC50) were calculated by using EC50 calculator.
According to the above-mentioned experimental method, the compounds of the present application were subjected to IDO1 enzymatic evaluation at cytological level (the concentration of each test compound was all 100 nM).
According to the above-mentioned experimental method, the compound of the present application was subjected to hIDO1-cell base EC50 detection.

inhibition at 0.1 µM	Structure (SMILES)
49%	COc1cccc(NC(=O)N2CC3(CC(Oc4ccnc5ccc(F)cc45)C3)C2)c1 [Example 4, N-(3-methoxyphenyl)-6-((6-fluoroquinolin-4-yl)oxy)-2-aza-spiro[3.3]heptan-2-carboxamide]
63%	COc1ccc(NC(=O)N2CC3(CC(Oc4ccnc5ccc(F)cc45)C3)C2)cc1 [Example 5, N-(4-methoxyphenyl)-6-((6-fluoroquinolin-4-yl)oxy)-2-aza-spiro[3.3]heptan-2-carboxamide]
87%	O=C(c1ccc(Cl)cc1)N1CC2(CC(Oc3ccnc4ccc(F)cc34)C2)C1 [Example 6, (4-chlorophenyl)(6-((6-fluoroquinolin-4-yl)oxy)-2-aza-spiro[3.3]heptan-2-yl) methanone]
31%	O=C(/C=C/c1ccc(Cl)cc1)N1CC2(CC(Oc3ccnc4ccc(F)cc34)C2)C1 [Example 7, (E)-3-(4-chlorophenyl)-1-(6-((6-fluoroquinolin-4-yl)oxy)-2-aza-spiro[3.3]heptan-2-yl)prop-2-en-1-one]
90%	COC/C=C/c1ccc(NC(=O)N2CC3(CC(Oc4ccnc5ccc(F)cc45)C3)C2)cc1 [Example 10]
25%	O=C(CNc1ccccc1)N1CC2(CC(Oc3ccnc4ccc(F)cc34)C2)C1 [Example 11, 1-(6-((6-fluoroquinolin-4-yl)oxy)-2-aza-cyclo[3.3]heptan-2-yl)-2-(anilino)ethyl-1-one]
18%	O=C(NCc1ccc(Cl)cc1)N1CC2(CC(Oc3ccnc4ccc(F)cc34)C2)C1 [Example 15, N-(4-chlorobenzyl)-6-((6-fluoroquinolin-4-yl)oxy)-2-aza-spiro[3.3]heptan-2-carboxamide]
85%	O=C(Nc1ccc(F)cc1)N1CC2(CC(Oc3ccnc4ccc(F)cc34)C2)C1 [Example 16, N-(4-fluorophenyl)-6-((6-fluoroquinolin-4-yl)oxy)-2-aza-spiro[3.3]heptan-2-carboxamide]
61%	O=C(Nc1ccc(Cl)cc1)N1CC2(CCC(Nc3ccnc4ccc(F)cc34)C2)C1 (centres unmarked) [Example 19]
74%	O=C(Nc1ccc(Cl)cc1)N1CC2(CC(Oc3ccnc4ccccc34)C2)C1 [Example 23, N-(4-chlorophenyl)-6-(quinolin-4-yloxy)-2-aza-spiro[3.3]heptan-2-carboxamide]
15%	O=C(Nc1ccc(Cl)cc1)N1CC2(CC(Oc3cnc4ccccc4c3)C2)C1 [Example 26, N-(4-chlorophenyl)-6-(quinolin-3-yloxy)-2-aza-spiro[3.3]heptan-2-carboxamide]
10%	O=C(Nc1ccc(Cl)cc1)N1CC2(CC(Oc3ncnc4ccccc34)C2)C1 [Example 29, N-(4-chlorophenyl)-6-(quinazolin-4-yloxy)-2-aza-spiro[3.3]heptan-2-carboxamide]
11%	O=C(Nc1ccc(F)cc1)N1CC2C(C1)C2Oc1ccnc2ccc(F)cc12 (centres unmarked) [Example 30, N-(4-fluorophenyl)-6-((6-fluoroquinolin-4-yl)oxy)-3-aza-cyclo[3.1.0]hexan-3-carboxamide]
46%	O=C(Nc1ccc(Cl)cc1)N1CC2C(C1)C2Oc1ccnc2ccc(F)cc12 (centres unmarked) [Example 31, N-(4-chlorophenyl)-6-((6-fluoroquinolin-4-yl)oxy)-3-aza-cyclo[3.1.0]hexan-3-carboxamide]
44%	O=C(Nc1ccc2c(c1)CCO2)N1CC2(CC(Oc3ccnc4ccc(F)cc34)C2)C1 [Example 32, N-(2,3-dihydrobenzofuran-5-yl)-6-((6-fluoroquinolin-4-yl)oxy)-2-aza-spiro[3.3]heptan-2-carboxamide]
10%	O=C(Nc1ccc2c(c1)OCCO2)N1CC2(CC(Oc3ccnc4ccc(F)cc34)C2)C1 [Example 33, N-(2,3-dihydrobenzo[b][1,4]dioxin-6-yl)-6-((6-fluoroquinolin-4-yl)oxy)-2-aza-spiro[3.3]heptan-2-carboxamide]

inhibition at 0.1 µM	Structure (SMILES)
26%	O=C(Nc1ccc(Cl)cc1)N1CC2(CC(Oc3nccc4ccccc34)C2)C1 [Example 36, N-(4-chlorophenyl)-6-(isoquinolin-1-yloxy)-2-aza-spiro[3.3]heptan-2-carboxamide]
91%	CC(C(=O)Nc1ccc(Cl)cc1)N1CC2(CC(Oc3ccnc4ccc(F)cc34)C2)C1 (centres unmarked) [Example 39, N-(4-chlorophenyl)-2-(6-((6-fluoroquinolin-4-yl)oxo)-2-aza-spiro[3.3]heptan-2-yl)propionamide]
19%	CC(C(=O)NC1CCCCC1)N1CC2(CC(Oc3ccnc4ccc(F)cc34)C2)C1 (centres unmarked) [Example 40, N-cyclohexyl-2-(6-((6-fluoroquinolin-4-yl)oxo)-2-aza-spiro[3.3]heptan-2-yl)propionamide]
23%	CC(C(=O)Nc1cccnc1)N1CC2(CC(Oc3ccnc4ccc(F)cc34)C2)C1 (centres unmarked) [Example 41, 2-(6-((6-fluoroquinolin-4-yl)oxo)-2-aza-spiro[3.3]heptan-2-yl)-N-(pyridin-3-yl)propionamide]
49%	CC(C(=O)Nc1ccc(Cl)cc1)N1CC2C(COc3ccnc4ccc(F)cc34)C2C1 (centres unmarked) [Example 46, N-(4-chlorophenyl)-2-(6-(((6-fluoroquinolin-4-yl)oxo)methyl)-3-aza-bicyclo[3.1.0]hexan-3-yl)propionamide]
99%	CC(C(=O)Nc1ccc(Cl)cc1)N1CC2C(C1)C2Oc1ccnc2ccc(F)cc12 (centres unmarked) [Example 49, N-(4-chlorophenyl)-2-(6-((6-fluoroquinolin-4-yl)oxo)-3-aza-bicyclo[3.1.0]hexan-3-yl)propionamide]
69%	CC(C(=O)Nc1ccc(Cl)cc1)N1CC2(CC(Nc3ccnc4ccc(F)cc34)C2)C1 (centres unmarked) [Example 54, N-(4-chlorophenyl)-2-(6-((6-fluoroquinolin-4-yl)amino)-2-aza-spiro[3.3]heptan-2-yl)propionamide]
85%	CC(C(=O)Nc1ccc(Cl)cc1)N1CC2(CC(N(C)c3ccnc4ccc(F)cc34)C2)C1 (centres unmarked) [Example 59, N-(4-chloro)-2-(6-((6-fluoroquinolin-4-yl)(methyl)amino)-2-aza-spiro[3.3]heptan-2-yl)propionamide]
96%	CC(C(=O)Nc1ccc(Cl)cc1)N1CCC2CN(c3ccnc4ccc(F)cc34)CC2C1 (centres unmarked) [Example 64, N-(4-chlorophenyl)-2-(2-(6-fluoroquinolin-4-yl)octahydro-5H-pyrrolo[3,4-c]pyridin-5-yl)propionamide]
59%	COc1cccc(NC(=O)C(C)N2CCC3CN(c4ccnc5ccc(F)cc45)CC3C2)c1 (centres unmarked) [Example 65, 2-(2-(6-fluoroquinolin-4-yl)octahydro-5H-pyrrolo[3,4-c]pyridin-5-yl)-N-(3-methoxyphenyl)propionamide]
90%	COc1ccc(NC(=O)C(C)N2CCC3CN(c4ccnc5ccc(F)cc45)CC3C2)cc1 (centres unmarked) [Example 66, 2-(2-(6-fluoroquinolin-4-yl)octahydro-5H-pyrrolo[3,4-c]pyridin-5-yl)-N-(4-methoxyphenyl)propionamide]
94%	CC(C(=O)Nc1ccccc1)N1CCC2CN(c3ccnc4ccc(F)cc34)CC2C1 (centres unmarked) [Example 67, 2-(2-(6-fluoroquinolin-4-yl)octahydro-5H-pyrrolo[3,4-c]pyridin-5-yl)-N-phenyl-propionamide]
83%	COc1ccc(NC(=O)C(C)N2CC3C(C2)C3Nc2ccnc3ccc(F)cc23)cc1 (centres unmarked) [Example 73, 2-(6-((6-fluoroquinolin-4-yl)amino)-3-aza-bicyclo[3.1.0]hexan-3-yl)-N-(4-methoxyphenyl)propionamide]
85%	CC(C(=O)Nc1ccccc1)N1CC2C(C1)C2Nc1ccnc2ccc(F)cc12 (centres unmarked) [Example 74, 2-(6-((6-fluoroquinolin-4-yl)amino)-3-aza-bicyclo[3.1.0]hexan-3-yl)-N-phenyl-propionamide]
42%	O=C(Nc1ccc(Cl)cc1)C(CO)N1CC2C(C1)C2Nc1ccnc2ccc(F)cc12 (centres unmarked) [Example 78, N-(4-chlorophenyl)-2-(6-((6-fluoroquinolin-4-yl)amino)-3-aza-bicyclo[3.1.0]hexan-3-yl)-3-hydroxypropionamide]
45%	CC(C(=O)Nc1ccc(Cl)cc1)N1CC2CC(Nc3ccnc4ccc(F)cc34)CC2C1 (centres unmarked) [Example 83, N-(4-chlorophenyl)-2-(5-((6-fluoroquinolin-4-yl)amino)hexahydro-cyclopenta[c]pyrrol-2(1H)-yl)propionamide]

Same assay, conditions: human IFN-γ, 48 hours, read-out: hIDO1-cell base EC50

EC50	Structure (SMILES)
0.036 µM	O=C(c1ccc(Cl)cc1)N1CC2(CC(Oc3ccnc4ccc(F)cc34)C2)C1 [Example 6, (4-chlorophenyl)(6-((6-fluoroquinolin-4-yl)oxy)-2-aza-spiro[3.3]heptan-2-yl) methanone]
0.033 µM	O=C(Nc1ccc(F)cc1)N1CC2(CC(Oc3ccnc4ccc(F)cc34)C2)C1 [Example 16, N-(4-fluorophenyl)-6-((6-fluoroquinolin-4-yl)oxy)-2-aza-spiro[3.3]heptan-2-carboxamide]
0.026 µM	O=C(Nc1ccc(Cl)cc1)N1CC2(CC(Oc3ccnc4ccccc34)C2)C1 [Example 23, N-(4-chlorophenyl)-6-(quinolin-4-yloxy)-2-aza-spiro[3.3]heptan-2-carboxamide]
0.02 µM	CC(C(=O)Nc1ccc(Cl)cc1)N1CC2(CC(Oc3ccnc4ccc(F)cc34)C2)C1 (centres unmarked) [Example 39, N-(4-chlorophenyl)-2-(6-((6-fluoroquinolin-4-yl)oxo)-2-aza-spiro[3.3]heptan-2-yl)propionamide]
0.005 µM	CC(C(=O)Nc1ccc(Cl)cc1)N1CC2C(C1)C2Oc1ccnc2ccc(F)cc12 (centres unmarked) [Example 49, N-(4-chlorophenyl)-2-(6-((6-fluoroquinolin-4-yl)oxo)-3-aza-bicyclo[3.1.0]hexan-3-yl)propionamide]
0.025 µM	CC(C(=O)Nc1ccc(Cl)cc1)N1CC2(CC(N(C)c3ccnc4ccc(F)cc34)C2)C1 (centres unmarked) [Example 59, N-(4-chloro)-2-(6-((6-fluoroquinolin-4-yl)(methyl)amino)-2-aza-spiro[3.3]heptan-2-yl)propionamide]

Source: patent US12551478B2, “Quinoline derivative having indoleamine-2,3-dioxygenase inhibitory activity” (SHENZHEN CHIPSCREEN BIOSCIENCES CO., LTD., priority 2018, dated 2026)
